Relative viability data for 4 compounds are collected here from the supplement of paper PMC10307832.

One test deals with NCI-H1792. In words: relative viability (nuclei count vs DMSO), 5 days (fraction); higher = more cells survive. Particulars: first compound 0.2 µM. The method, boiled down: (§1)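 Relative viability equals treated-well nuclei counts divided by vehicle-well nuclei counts. Counts came from 4× images of lung cancer cell lines grown in 1536-well plates for 5 days after pin-tool dosing on the day after seeding. Dosing used one drug alone or a fixed anchor-drug dose plus five library-drug doses (not always all listed) in √10 steps, and values are medians of duplicate plates.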
Compound `COCC1(CO)C(=O)C2CCN1CC2` (configuration not stated) [PRIMA-1MET] + N=C(N)NC(=N)NCCc1ccccc1 [Phenformin] (partner 250 µM) came in with a relative viability of 0.352.

On to `COCC1(CO)C(=O)C2CCN1CC2` (configuration not stated) [PRIMA-1MET] + CC(=O)c1c(C)c2cnc(Nc3ccc(N4CCNCC4)cn3)nc2n(C2CCCC2)c1=O [Palbociclib] (partner 0.5 µM), for which the relative viability is 0.633.

Compound `COCC1(CO)C(=O)C2CCN1CC2` (configuration not stated) [PRIMA-1MET] + Cc1nc(Nc2ncc(C(=O)Nc3c(C)cccc3Cl)s2)cc(N2CCN(CCO)CC2)n1 [Dasatinib] (partner 0.075 µM) had a relative viability of 0.816.

In the case of `COCC1(CO)C(=O)C2CCN1CC2` (configuration not stated) [PRIMA-1MET] + O=C(c1cc(Cc2n[nH]c(=O)c3ccccc23)ccc1F)N1CCN(C(=O)C2CC2)CC1 [Olaparib] (partner 8 µM), the relative viability was 0.899.

The test is the same for the next values; noted with them: first compound 0.6325 µM.
Consider `COCC1(CO)C(=O)C2CCN1CC2` (configuration not stated) [PRIMA-1MET] + N=C(N)NC(=N)NCCc1ccccc1 [Phenformin] (partner 250 µM), for which the relative viability is 0.272.

`COCC1(CO)C(=O)C2CCN1CC2` (configuration not stated) [PRIMA-1MET] + CC(=O)c1c(C)c2cnc(Nc3ccc(N4CCNCC4)cn3)nc2n(C2CCCC2)c1=O [Palbociclib] (partner 0.5 µM) gave a relative viability of 0.596.

Turning to `COCC1(CO)C(=O)C2CCN1CC2` (configuration not stated) [PRIMA-1MET] + Cc1nc(Nc2ncc(C(=O)Nc3c(C)cccc3Cl)s2)cc(N2CCN(CCO)CC2)n1 [Dasatinib] (partner 0.075 µM), the relative viability stood at 0.717.

The same test, now with this note: first compound 2 µM.
`COCC1(CO)C(=O)C2CCN1CC2` (configuration not stated) [PRIMA-1MET] + CC(=O)c1c(C)c2cnc(Nc3ccc(N4CCNCC4)cn3)nc2n(C2CCCC2)c1=O [Palbociclib] (partner 0.5 µM) showed a relative viability of 0.622.

Regarding `COCC1(CO)C(=O)C2CCN1CC2` (configuration not stated) [PRIMA-1MET] + Cc1nc(Nc2ncc(C(=O)Nc3c(C)cccc3Cl)s2)cc(N2CCN(CCO)CC2)n1 [Dasatinib] (partner 0.075 µM), the relative viability is 0.811.

The same test, now with this note: first compound 6.325 µM.
For `COCC1(CO)C(=O)C2CCN1CC2` (configuration not stated) [PRIMA-1MET] + N=C(N)NC(=N)NCCc1ccccc1 [Phenformin] (partner 250 µM), the relative viability was 0.238.

Regarding `COCC1(CO)C(=O)C2CCN1CC2` (configuration not stated) [PRIMA-1MET] + CC(=O)c1c(C)c2cnc(Nc3ccc(N4CCNCC4)cn3)nc2n(C2CCCC2)c1=O [Palbociclib] (partner 0.5 µM), the relative viability turned out to be 0.7.

For the compound `COCC1(CO)C(=O)C2CCN1CC2` (configuration not stated) [PRIMA-1MET] + Cc1nc(Nc2ncc(C(=O)Nc3c(C)cccc3Cl)s2)cc(N2CCN(CCO)CC2)n1 [Dasatinib] (partner 0.075 µM), the relative viability amounted to 0.883.

`COCC1(CO)C(=O)C2CCN1CC2` (configuration not stated) [PRIMA-1MET] + O=C(c1cc(Cc2n[nH]c(=O)c3ccccc23)ccc1F)N1CCN(C(=O)C2CC2)CC1 [Olaparib] (partner 8 µM) gave a relative viability of 0.444.

Staying with this test, now noted: first compound 20 µM.
As to `COCC1(CO)C(=O)C2CCN1CC2` (configuration not stated) [PRIMA-1MET] + N=C(N)NC(=N)NCCc1ccccc1 [Phenformin] (partner 250 µM), the relative viability came to 0.319.

`COCC1(CO)C(=O)C2CCN1CC2` (configuration not stated) [PRIMA-1MET] + CC(=O)c1c(C)c2cnc(Nc3ccc(N4CCNCC4)cn3)nc2n(C2CCCC2)c1=O [Palbociclib] (partner 0.5 µM) displayed a relative viability of 0.638.

Compound `COCC1(CO)C(=O)C2CCN1CC2` (configuration not stated) [PRIMA-1MET] + Cc1nc(Nc2ncc(C(=O)Nc3c(C)cccc3Cl)s2)cc(N2CCN(CCO)CC2)n1 [Dasatinib] (partner 0.075 µM) showed a relative viability of 0.754.

Compound `COCC1(CO)C(=O)C2CCN1CC2` (configuration not stated) [PRIMA-1MET] + O=C(c1cc(Cc2n[nH]c(=O)c3ccccc23)ccc1F)N1CCN(C(=O)C2CC2)CC1 [Olaparib] (partner 8 µM) returned a relative viability of 0.457.

The subject of the next test is NCI-H2085. The test is described as above. Conditions: first compound 0.2 µM. The method, boiled down:
as §1
`COCC1(CO)C(=O)C2CCN1CC2` (configuration not stated) [PRIMA-1MET] + N=C(N)NC(=N)NCCc1ccccc1 [Phenformin] (partner 250 µM): the relative viability amounted to 0.727.

For the compound `COCC1(CO)C(=O)C2CCN1CC2` (configuration not stated) [PRIMA-1MET] + CC(=O)c1c(C)c2cnc(Nc3ccc(N4CCNCC4)cn3)nc2n(C2CCCC2)c1=O [Palbociclib] (partner 0.5 µM), the relative viability was found to be 0.526.

Take `COCC1(CO)C(=O)C2CCN1CC2` (configuration not stated) [PRIMA-1MET] + Cc1nc(Nc2ncc(C(=O)Nc3c(C)cccc3Cl)s2)cc(N2CCN(CCO)CC2)n1 [Dasatinib] (partner 0.075 µM): the relative viability was 0.248.

Compound `COCC1(CO)C(=O)C2CCN1CC2` (configuration not stated) [PRIMA-1MET] + O=C(c1cc(Cc2n[nH]c(=O)c3ccccc23)ccc1F)N1CCN(C(=O)C2CC2)CC1 [Olaparib] (partner 8 µM) returned a relative viability of 0.837.

Staying with this test, now noted: first compound 0.6325 µM.
Compound `COCC1(CO)C(=O)C2CCN1CC2` (configuration not stated) [PRIMA-1MET] + N=C(N)NC(=N)NCCc1ccccc1 [Phenformin] (partner 250 µM) gave a relative viability of 0.62.

`COCC1(CO)C(=O)C2CCN1CC2` (configuration not stated) [PRIMA-1MET] + CC(=O)c1c(C)c2cnc(Nc3ccc(N4CCNCC4)cn3)nc2n(C2CCCC2)c1=O [Palbociclib] (partner 0.5 µM) displayed a relative viability of 0.515.

Consider `COCC1(CO)C(=O)C2CCN1CC2` (configuration not stated) [PRIMA-1MET] + Cc1nc(Nc2ncc(C(=O)Nc3c(C)cccc3Cl)s2)cc(N2CCN(CCO)CC2)n1 [Dasatinib] (partner 0.075 µM), for which the relative viability was 0.23.

In the case of `COCC1(CO)C(=O)C2CCN1CC2` (configuration not stated) [PRIMA-1MET] + O=C(c1cc(Cc2n[nH]c(=O)c3ccccc23)ccc1F)N1CCN(C(=O)C2CC2)CC1 [Olaparib] (partner 8 µM), the relative viability was 0.817.

Still in this test, the particulars now being: first compound 2 µM.
On to `COCC1(CO)C(=O)C2CCN1CC2` (configuration not stated) [PRIMA-1MET] + N=C(N)NC(=N)NCCc1ccccc1 [Phenformin] (partner 250 µM), for which the relative viability was 0.432.

Consider `COCC1(CO)C(=O)C2CCN1CC2` (configuration not stated) [PRIMA-1MET] + CC(=O)c1c(C)c2cnc(Nc3ccc(N4CCNCC4)cn3)nc2n(C2CCCC2)c1=O [Palbociclib] (partner 0.5 µM), for which the relative viability turned out to be 0.475.
